biological target: T1, cPLA2 (Homo sapiens, UniProt P47712); assay: Coumarine assay (hydrolysis of 7-hydroxycoumarinyl 6-heptenoate); type: biochemical; settings: 60 μM 7-hydroxycoumarinyl 6-heptenoate, pH 7.5; read-out: Coumarin IC50
T1 sequence (P47712 1-749): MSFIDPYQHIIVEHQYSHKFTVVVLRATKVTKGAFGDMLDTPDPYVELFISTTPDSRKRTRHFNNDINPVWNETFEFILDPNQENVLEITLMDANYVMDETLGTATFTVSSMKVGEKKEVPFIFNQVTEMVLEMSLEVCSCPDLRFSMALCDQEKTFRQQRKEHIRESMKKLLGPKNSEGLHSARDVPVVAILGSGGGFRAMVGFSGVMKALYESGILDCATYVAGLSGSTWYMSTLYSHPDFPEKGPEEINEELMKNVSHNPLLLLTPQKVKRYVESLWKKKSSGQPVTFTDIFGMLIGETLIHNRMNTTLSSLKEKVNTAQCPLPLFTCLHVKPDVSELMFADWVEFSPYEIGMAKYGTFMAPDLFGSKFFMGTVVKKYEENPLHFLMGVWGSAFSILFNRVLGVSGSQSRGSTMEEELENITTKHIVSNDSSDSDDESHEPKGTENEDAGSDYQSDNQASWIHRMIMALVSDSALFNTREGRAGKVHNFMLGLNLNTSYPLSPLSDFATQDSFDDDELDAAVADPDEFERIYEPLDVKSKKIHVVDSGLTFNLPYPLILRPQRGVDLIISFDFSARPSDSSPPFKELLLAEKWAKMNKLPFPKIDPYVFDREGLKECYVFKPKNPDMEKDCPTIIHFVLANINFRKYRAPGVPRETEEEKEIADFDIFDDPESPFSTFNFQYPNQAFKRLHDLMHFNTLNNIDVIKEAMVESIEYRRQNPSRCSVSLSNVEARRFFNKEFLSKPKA

Row | IC50 [nM] | Compound
1 | 270 | O=C(O)c1ccc(CCCc2c(CCNS(=O)(=O)c3cc(F)c(Cl)cc3F)n(C(c3ccccc3)c3ccccc3)c3ccc(Cl)cc23)cc1 [Example 168, 4-{3-[1-benzhydryl-5-chloro-2-(2-{[(4-chloro-2,5-difluorophenyl)sulfonyl]amino}ethyl)-1H-indol-3-yl]propyl}benzoic acid]
2 | 460 | O=C(O)c1ccc(OCCc2c(CCNS(=O)(=O)c3cc(Cl)c(F)cc3F)n(C(c3ccccc3)c3ccccc3)c3ccc(Cl)cc23)cc1 [Example 169, 4-{2-[1-Benzhydryl-5-chloro-2-(2-{[(5-chloro-2,4-difluorophenyl)sulfonyl]amino}ethyl)-1H-indol-3-yl]ethoxy}benzoic acid]
3 | 950 | O=C(O)c1ccc(OCCc2c(CCNS(=O)(=O)c3cc(F)c(Cl)cc3F)n(C(c3ccccc3)c3ccccc3)c3ccc(Cl)cc23)cc1 [Example 170, 4-{2-[1-benzhydryl-5-chloro-2-(2-{[(4-chloro-2,5-difluorophenyl)sulfonyl]amino}ethyl)-1H-indol-3-yl]ethoxy}benzoic acid]
4 | 360 | COc1cc(C)ccc1S(=O)(=O)NCCc1c(CCOc2ccc(C(=O)O)cc2)c2cc(Cl)ccc2n1C(c1ccccc1)c1ccccc1 [Example 171, 4-{2-[1-benzhydryl-5-chloro-2-(2-{[(2-methoxy-4-methylphenyl)sulfonyl]amino}ethyl)-1H-indol-3-yl]ethoxy}benzoic acid]
5 | 350 | O=C(O)c1ccc(CCCc2c(CCNS(=O)(=O)c3ccc(Cl)c4nonc34)n(C(c3ccccc3)c3ccccc3)c3ccc(Cl)cc23)cc1 [Example 172, 4-{3-[1-benzhydryl-5-chloro-2-(2-{[(7-chloro-2,1,3-benzoxadiazol-4-yl)sulfonyl]amino}ethyl)-1H-indol-3-yl]propyl}benzoic acid]
6 | 400 | COc1ccc(S(=O)(=O)NCCc2c(CCCc3ccc(C(=O)O)cc3)c3cc(Cl)ccc3n2C(c2ccccc2)c2ccccc2)c2nonc12 [Example 173, 4-{3-[1-benzhydryl-5-chloro-2-(2-{[(7-methoxy-2,1,3-benzoxadiazol-4-yl)sulfonyl]amino}ethyl)-1H-indol-3-yl]propyl}benzoic acid]
7 | 1100 | O=C(O)c1ccc(OCCc2c(CCNS(=O)(=O)c3ccc(Cl)c4nonc34)n(C(c3ccccc3)c3ccccc3)c3ccc(Cl)cc23)cc1 [Example 174, 4-{2-[1-benzhydryl-5-chloro-2-(2-{[(7-chloro-2,1,3-benzoxadiazol-4-yl)sulfonyl]amino}ethyl)-1H-indol-3-yl]ethoxy}benzoic acid]
8 | 370 | COc1ccc(S(=O)(=O)NCCc2c(CCOc3ccc(C(=O)O)cc3)c3cc(Cl)ccc3n2C(c2ccccc2)c2ccccc2)c2nonc12 [Example 175, 4-{2-[1-benzhydryl-5-chloro-2-(2-{[(7-methoxy-2,1,3-benzoxadiazol-4-yl)sulfonyl]amino}ethyl)-1H-indol-3-yl]ethoxy}benzoic acid]
9 | 400 | Cc1nc(-c2ccc(S(=O)(=O)NCCc3c(CCCc4ccc(C(=O)O)cc4)c4cc(Cl)ccc4n3C(c3ccccc3)c3ccccc3)s2)cs1 [Example 176, 4-(3-{1-benzhydryl-5-chloro-2-[2-({[5-(2-methyl-1,3-thiazol-4-yl)thien-2-yl]sulfonyl}amino)ethyl]-1H-indol-3-yl}propyl)benzoic acid]
10 | 900 | Cc1nc(-c2ccc(S(=O)(=O)NCCc3c(CCOc4ccc(C(=O)O)cc4)c4cc(Cl)ccc4n3C(c3ccccc3)c3ccccc3)s2)cs1 [Example 177, 4-(2-{1-benzhydryl-5-chloro-2-[2-({[5-(2-methyl-1,3-thiazol-4-yl)thien-2-yl]sulfonyl}amino)ethyl]-1H-indol-3-yl}ethoxy)benzoic acid]
11 | 650 | O=C(O)c1ccc(OCCc2c(CCNS(=O)(=O)c3ccsc3)n(C(c3ccccc3)c3ccccc3)c3ccc(Cl)cc23)cc1 [Example 178, 4-[2-(1-benzhydryl-5-chloro-2-{2-[(thien-3-ylsulfonyl)amino]ethyl}-1H-indol-3-yl)ethoxy]benzoic acid]

From patent US7605156B2, “Methods for the use of inhibitors of cytosolic phospholipase A2” (Wyeth, priority 2001, dated 2009)
